Results on 15 compounds are retold here after PMC7722354, “7-Substituted 2-Nitro-5,6-dihydroimidazo[2,1-b][1,3]oxazines: Novel Antitubercular Agents Lead to a New Preclinical Candidate for Visceral Leishmaniasis” (Journal of Medicinal Chemistry, 2017).

Values after ≈ are worked out from the molar mass of the structure shown.

One assay has as its system Leishmania donovani. Nature of the assay: L. don amastigote mouse macrophage-based luciferase assay (CDRI). The assay is classed as cell-based. The conditions noted are these: in mouse macrophages, single test (CDRI).
A further assay has as its system Leishmania infantum. The experiment in a line: L. inf growth inhibition in mouse macrophages (LMPH). The note with it: Macrophage, mean of at least two determinations. Type of assay: cell-based.
Another assay has as its system Trypanosoma cruzi. The experiment in a line: T. cruzi growth inhibition on MRC-5 cells (LMPH). The assay is classed as cell-based. The conditions noted are these: MRC5.
Assay [1] deals with human lung fibroblasts (MRC-5 cells). Nature of the assay: cytotoxicity toward MRC-5 cells (LMPH). The assay is classed as cell-based. The note with it: MRC5.
In assay [2] the test system is M. tb, strain H37Rv. Nature of the assay: MABA minimum inhibitory concentration assay (aerobic). Type of assay: cell-based, Mycobacterium tuberculosis. The note with it: Mycobacterium tuberculosis, H37RV, aerobic; read-out: MIC MABA.
For assay [3], the system named is M. tb, strain H37Rv. The experiment in a line: LORA minimum inhibitory concentration assay (hypoxic). Type of assay: cell-based. The note with it: Mycobacterium tuberculosis.

Consider `CC1(COc2ccc(-c3ccc(F)nc3)cc2)CCn2cc([N+](=O)[O-])nc2O1` (stereo not shown) [compound 56], for which the IC50 in the assay with Leishmania donovani is 120 nM; in the assay with Leishmania infantum, 160 nM; in the assay with Trypanosoma cruzi, 300 nM; in assay [1], above 64000 nM. Also, the MIC in the assay on M. tb, strain H37Rv [2] worked out at 0.29 µM (≈ 0.111 µg/mL); against M. tb, strain H37Rv [3], 2.7 µM (≈ 1.04 µg/mL).

Regarding `O=[N+]([O-])c1cn2c(n1)OC(COc1cnc(-c3ccc(F)cc3)cn1)CC2` (stereo not shown) [compound 126], the IC50 in the assay on Leishmania donovani was 150 nM; in the assay on Leishmania infantum, 710 nM; in the assay with Trypanosoma cruzi, 4700 nM; in assay [1], above 64000 nM. The MIC in the assay on M. tb, strain H37Rv [2] is 0.15 µM (≈ 0.0557 µg/mL); with M. tb, strain H37Rv [3], above 128 µM.

For the compound `CC1(CN2CCN(C(=O)c3ccc(F)cc3)CC2)CCn2cc([N+](=O)[O-])nc2O1` (stereo not shown) [compound 159], the IC50 in the assay on Leishmania donovani is 2800 nM; in the assay with Leishmania infantum, 6500 nM; with Trypanosoma cruzi, 2800 nM; in assay [1] it was above 64000 nM. Moreover, the MIC with M. tb, strain H37Rv [2] was 93 µM (≈ 37.5 µg/mL); with M. tb, strain H37Rv [3], above 128 µM.

As to `CC1(CN2CCN(c3ccc(F)cc3)CC2)CCn2cc([N+](=O)[O-])nc2O1` (stereo not shown) [compound 144], the IC50 in the assay on Leishmania donovani was 700 nM; with Leishmania infantum, 730 nM; in the assay on Trypanosoma cruzi it was 1300 nM; in assay [1], above 64000 nM. Further, the MIC is 0.34 µM (≈ 0.128 µg/mL) in the assay on M. tb, strain H37Rv [2] and 6.8 µM (≈ 2.55 µg/mL) against M. tb, strain H37Rv [3].

Consider `CC1(COCc2ccc(OC(F)(F)F)cc2)CCn2cc([N+](=O)[O-])nc2O1` (stereo not shown) [compound 21], for which the IC50 in the assay on Leishmania donovani is 310 nM; with Leishmania infantum it was 300 nM; in the assay with Trypanosoma cruzi, 750 nM; in assay [1] it was above 64000 nM. Moreover, the MIC in the assay with M. tb, strain H37Rv [2] stood at 0.55 µM (≈ 0.213 µg/mL); in the assay with M. tb, strain H37Rv [3], 3.3 µM (≈ 1.28 µg/mL).

In the case of `CC1(COc2cccc(-c3ccc(F)cc3F)n2)CCn2cc([N+](=O)[O-])nc2O1` (stereo not shown) [compound 103], the IC50 is 240 nM with Leishmania infantum, 220 nM with Trypanosoma cruzi and above 64000 nM in assay [1]. The MIC in the assay with M. tb, strain H37Rv [2] is 0.69 µM (≈ 0.278 µg/mL); in the assay with M. tb, strain H37Rv [3], 4.8 µM (≈ 1.93 µg/mL).

For `O=[N+]([O-])c1cn2c(n1)OC(COc1ccc(-c3ccc(F)cc3)nn1)CC2` (stereo not shown) [compound 123], the IC50 is 70 nM with Leishmania donovani, 8400 nM in the assay on Leishmania infantum, 670 nM with Trypanosoma cruzi and above 64000 nM in assay [1]. Also, the MIC in the assay with M. tb, strain H37Rv [2] was 0.35 µM (≈ 0.13 µg/mL); in the assay with M. tb, strain H37Rv [3], 23 µM (≈ 8.54 µg/mL).

On to `CC1(COc2cccc(-c3ccc(F)nc3)n2)CCn2cc([N+](=O)[O-])nc2O1` (stereo not shown) [compound 118], for which the results for the IC50 (in the assay on Leishmania infantum; in the assay on Trypanosoma cruzi; in assay [1]) were 1100 nM, 520 nM and above 64000 nM, respectively. Also, the MIC in the assay on M. tb, strain H37Rv [2] worked out at 11 µM (≈ 4.24 µg/mL); against M. tb, strain H37Rv [3], 7.8 µM (≈ 3.01 µg/mL).

For `CC1(CN2CCC(Oc3ccc(F)cc3)CC2)CCn2cc([N+](=O)[O-])nc2O1` (stereo not shown) [compound 154], the IC50 in the assay on Leishmania donovani is 220 nM; with Leishmania infantum it was 320 nM; with Trypanosoma cruzi it was 590 nM; in assay [1], above 64000 nM. Further, the MIC in the assay on M. tb, strain H37Rv [2] came to 0.23 µM (≈ 0.0898 µg/mL); against M. tb, strain H37Rv [3], 48 µM (≈ 18.7 µg/mL).

In the case of `O=[N+]([O-])c1cn2c(n1)OC(COc1cccc(-c3ccc(F)nc3F)n1)CC2` (stereo not shown) [compound 119], the IC50 with Leishmania donovani was 250 nM; in the assay on Leishmania infantum, 6700 nM; with Trypanosoma cruzi, 130 nM; in assay [1] it was above 64000 nM. The MIC came to 4.3 µM (≈ 1.67 µg/mL) in the assay on M. tb, strain H37Rv [2] and 10 µM (≈ 3.89 µg/mL) with M. tb, strain H37Rv [3].

Consider `CC1(CN2CCC(c3ccc(F)cc3)CC2)CCn2cc([N+](=O)[O-])nc2O1` (stereo not shown) [compound 149], for which the IC50 is 1000 nM in the assay on Leishmania donovani, 320 nM in the assay with Leishmania infantum, 870 nM in the assay on Trypanosoma cruzi and above 64000 nM in assay [1]. Besides, the MIC in the assay with M. tb, strain H37Rv [2] worked out at 0.22 µM (≈ 0.0824 µg/mL); in the assay on M. tb, strain H37Rv [3], 8.3 µM (≈ 3.11 µg/mL).

For `O=C(c1ccc(F)cc1)N1CCN(CC2CCn3cc([N+](=O)[O-])nc3O2)CC1` (stereo not shown) [compound 157], the IC50 with Leishmania donovani was 4800 nM; in the assay on Leishmania infantum, 45000 nM; with Trypanosoma cruzi it was 11000 nM; in assay [1] it was above 64000 nM. Besides, the MIC was 46 µM (≈ 17.9 µg/mL) in the assay with M. tb, strain H37Rv [2] and above 128 µM with M. tb, strain H37Rv [3].

`O=[N+]([O-])c1cn2c(n1)OC(COc1ccc(-c3ccc(F)nc3F)nc1)CC2` (stereo not shown) [compound 114]: the IC50 is 80 nM in the assay with Leishmania donovani, 52000 nM in the assay with Leishmania infantum, 350 nM with Trypanosoma cruzi and above 64000 nM in assay [1]. Also, the MIC in the assay on M. tb, strain H37Rv [2] was found to be 1.2 µM (≈ 0.467 µg/mL); in the assay with M. tb, strain H37Rv [3], 41 µM (≈ 16 µg/mL).

In the case of `CC1(COc2ncc(-c3ccc(F)cc3)cn2)CCn2cc([N+](=O)[O-])nc2O1` (stereo not shown) [compound 131], the IC50 in the assay on Leishmania donovani was 320 nM; in the assay on Leishmania infantum, 290 nM; in the assay on Trypanosoma cruzi, 430 nM; in assay [1] it was 57000 nM. Moreover, the MIC in the assay on M. tb, strain H37Rv [2] is 0.44 µM (≈ 0.17 µg/mL); in the assay on M. tb, strain H37Rv [3], 6.3 µM (≈ 2.43 µg/mL).

`O=[N+]([O-])c1cn2c(n1)OC(COc1ncc(-c3ccc(F)nc3)cn1)CC2` (stereo not shown) [compound 132]: the IC50 in the assay on Leishmania donovani was 530 nM; with Leishmania infantum, above 64000 nM; in the assay with Trypanosoma cruzi it was 3300 nM; in assay [1], above 64000 nM. In addition, the MIC in the assay with M. tb, strain H37Rv [2] worked out at 0.24 µM (≈ 0.0894 µg/mL); against M. tb, strain H37Rv [3], 21 µM (≈ 7.82 µg/mL).

Usually IC50 stands for the concentration at which inhibition is half-maximal. Low values mean higher potency, high ones lower potency. As a reminder, the MIC is the lowest concentration found to suppress growth.
